Measurements from US8232270B2, “Bivalent (−)-meptazinol compounds and/or their salts, and their preparation and futilization” (priority 2006, dated 2012).
Several values for one entry are separate records, joined by “and”; a condition that tells them apart may be missing. Equal entries are not always repeated. Structures can show the parent of a compound that is named as a salt.

Key:
mice brain AChE [1] = target: T1, mice brain AChE (Mus musculus, UniProt P21836); assay: AChE inhibition, Ellman spectrophotometric assay, mice brain homogenate; format: biochemical; conditions: for IC50: mean ± SEM, at least three measures, hydrochlorides, 20 min preincubation at 37° C.; for AChE selectivity: mice serum BChE versus mice brain AChE IC50
T1 construct: Mice brain homogenate prepared in saline was used as a source of AChE; from tissue; host or cells: mouse brain homogenate
T1 sequence (P21836 32-614): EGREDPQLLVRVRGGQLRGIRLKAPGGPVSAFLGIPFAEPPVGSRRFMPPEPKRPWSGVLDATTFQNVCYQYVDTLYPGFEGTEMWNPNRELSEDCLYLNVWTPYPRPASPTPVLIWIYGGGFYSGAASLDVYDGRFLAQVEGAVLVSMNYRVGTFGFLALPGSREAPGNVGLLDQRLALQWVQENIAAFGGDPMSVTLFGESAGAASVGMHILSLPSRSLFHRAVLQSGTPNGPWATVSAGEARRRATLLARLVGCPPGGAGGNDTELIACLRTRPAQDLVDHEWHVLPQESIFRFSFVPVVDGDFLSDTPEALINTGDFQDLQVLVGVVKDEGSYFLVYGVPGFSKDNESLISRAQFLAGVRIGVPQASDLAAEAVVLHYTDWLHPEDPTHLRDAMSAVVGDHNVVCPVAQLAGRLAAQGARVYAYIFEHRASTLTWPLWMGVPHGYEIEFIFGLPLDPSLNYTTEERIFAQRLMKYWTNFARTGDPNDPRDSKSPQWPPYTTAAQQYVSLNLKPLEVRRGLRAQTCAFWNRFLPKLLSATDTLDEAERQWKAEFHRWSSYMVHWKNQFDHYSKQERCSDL
Description: (§1) AChE inhibiting activities were measured by a spectrophotometric assay developed by Ellman et al. It was based on the fact that AChE catalyzes the hydrolysis of acetylcholine, releasing choline and acetic acid. In this assay, acetylthiocholine (AChSC) is hydrolyzed by the enzyme, releasing thiocholine containing a sulfhydrylic group able to react with color indicating reagent. Yellowish products were measured spectrophotometrically, the amount of which reflects the activity of AChE. All the procedures were operated according to the instruction of the AChE reagent kit produced by Nanjing Jiancheng Bio-engineering Institute. Mice brain homogenate prepared in saline was used as a source of AChE; mice serum was the source of BChE.
(§2) After incubation for 20 min at 37° C., acetylthiocholine iodide (300 μL of 0.05 mM water solution) was added as the substrate, and AChE activity was determined by UV spectrophotometry from the absorbance changes at […] for 3 min at 25° C. […] BChE inhibitory activity determinations were similarly carried out using butyrylthiocholine iodide (0.05 mM) as the substrate. Results are reported as the means ±SEM of IC50 obtained from at least three independent measures.

mice serum BChE = target: T2, mice serum BChE (Mus musculus, UniProt Q03311); assay: BChE inhibition, Ellman spectrophotometric assay, mice serum; format: biochemical; conditions: for IC50: mean ± SEM, at least three measures, butyrylthiocholine iodide substrate
T2 construct: mice serum was the source of BChE; from tissue; host or cells: mouse serum
Description: as §1
as §2, with “The AChE activity was determined in a reaction mixture containing 200 μL of a solution of AChE (0.415 U/mL in 0.1 M phosphate buffer, pH 8.0), 300 μL of a solution of 5,5′-dithio-bis(2-nitrobenzoic) acid (3.3 mM DTNB in 0.1 M phosphate buffered solution, pH 7.0, containing NaHCO3 6 mM), and 30 μL of a solution of the inhibitor (six to seven concentrations). After” for “After”

[2] = target: T3, AChE-induced Aβ (1-40) aggregation (human recombinant AChE) (Homo sapiens, UniProt P22303); assay: Inhibition of AChE-induced Aβ aggregation, thioflavin T fluorescence; format: biochemical; conditions: for IC50: extrapolated from inhibition curves, read-out: IC50 ± SEM, AChE-induced Aβ aggregation; for inhibition at 100 µM: inhibitor 100 μM, read-out: Inhibition (%) 100 μM ± SEM; for inhibition at 400 µM: read-out: Inhibition (%) 400 μM ± SEM; for inhibition of AChE-induced Aβ aggregation, factor compared with propidium: relative to propidium
T3 construct: purchased Sigma-Aldrich
Description: Aliquots of 2 μL Aβ (1-40) peptide (Biosource), lyophilized from 2 mg/mL HFIP solution and dissolved in DMSO, were incubated for 48 h at room temperature in 0.215 M sodium phosphate buffer (pH 8.0) at a concentration of 230 μM. For coincubation experiments, aliquots (16 μL) of human recombinant AChE (Sigma-Aldrich) (final concentration of 2.3 μM) and AChE in the presence of 2 μL of the tested inhibitors were added. Each assay was run in duplicate. To quantify amyloid fibril formation, the thioflavin T fluorescence method was then applied.
Fluorescence was monitored with excitation at 446 nm and emission at 490 nm. The percent inhibition of the AChE-induced aggregation due to the presence of increasing concentrations of the inhibitor was calculated by the following expression: 100−(IFi/IFo×100), where IFi and IFo were the fluorescence intensities obtained for Aβ plus AChE in the presence and in the absence of inhibitor, respectively, after subtracting the fluorescence of respective blanks. Inhibition curves and linear regression parameters were obtained for each compound, and the IC50 was extrapolated.

mice brain AChE [3] = target: T1, mice brain AChE; conditions: background statement; cited from earlier work
[4] = inhibitor 400 μM, Aβ 230 μM, AChE 2.3 μM, 48 h
[5] = relative to (−)-MEP (hydrochloride)

T3 sequence (P22303 32-614): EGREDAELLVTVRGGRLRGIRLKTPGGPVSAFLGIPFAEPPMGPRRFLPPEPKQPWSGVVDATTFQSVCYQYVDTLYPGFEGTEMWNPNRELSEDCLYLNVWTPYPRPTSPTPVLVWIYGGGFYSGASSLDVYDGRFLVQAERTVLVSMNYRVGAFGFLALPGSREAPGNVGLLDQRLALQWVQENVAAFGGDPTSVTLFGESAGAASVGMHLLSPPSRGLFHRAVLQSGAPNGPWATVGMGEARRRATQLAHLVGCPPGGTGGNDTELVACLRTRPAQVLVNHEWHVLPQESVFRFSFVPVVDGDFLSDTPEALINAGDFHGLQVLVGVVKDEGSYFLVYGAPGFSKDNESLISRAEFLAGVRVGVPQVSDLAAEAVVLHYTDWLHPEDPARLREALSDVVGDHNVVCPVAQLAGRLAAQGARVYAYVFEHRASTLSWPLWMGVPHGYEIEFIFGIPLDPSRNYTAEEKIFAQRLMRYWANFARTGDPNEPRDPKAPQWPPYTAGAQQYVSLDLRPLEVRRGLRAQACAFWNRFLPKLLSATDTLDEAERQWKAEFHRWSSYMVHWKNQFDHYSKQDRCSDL
T2 sequence (Q03311 30-603): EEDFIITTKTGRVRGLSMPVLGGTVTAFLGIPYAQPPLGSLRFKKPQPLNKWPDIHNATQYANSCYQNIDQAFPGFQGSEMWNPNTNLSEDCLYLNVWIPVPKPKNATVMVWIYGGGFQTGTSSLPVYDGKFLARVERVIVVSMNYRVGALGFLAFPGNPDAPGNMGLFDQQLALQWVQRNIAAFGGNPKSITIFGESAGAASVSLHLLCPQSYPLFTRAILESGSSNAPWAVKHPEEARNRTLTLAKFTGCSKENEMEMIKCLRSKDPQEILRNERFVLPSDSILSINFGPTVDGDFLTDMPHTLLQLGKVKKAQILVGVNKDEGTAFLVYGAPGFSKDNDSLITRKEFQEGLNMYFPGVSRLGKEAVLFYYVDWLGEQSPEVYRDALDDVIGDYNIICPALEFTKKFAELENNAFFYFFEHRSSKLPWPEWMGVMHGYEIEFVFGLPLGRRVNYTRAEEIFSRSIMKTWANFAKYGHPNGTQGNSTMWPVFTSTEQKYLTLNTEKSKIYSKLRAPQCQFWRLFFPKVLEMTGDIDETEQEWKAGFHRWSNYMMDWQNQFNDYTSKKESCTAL

| SMILES | IC50 (mice brain AChE [1]) [nM] | AChE selectivity (mice brain AChE [1]) | IC50 (mice serum BChE) [nM] | inhibition at 100 µM ([2]; Aβ 230 μM, AChE 2.3 μM, 48 h) [%] | inhibition at 400 µM [2, 4] [%] | other results |
| --- | --- | --- | --- | --- | --- | --- |
| CC[C@@]1(c2cccc(O)c2)CCCCN(CCN2CCCC[C@@](CC)(c3cccc(O)c3)C2)C1 [(A = CH2, n = 2)] | 43000 ± 20000 | 0.0029 | 125 ± 9 | – | – | – |
| CC[C@@]1(c2cccc(O)c2)CCCCN(CCCCCCCCCCN2CCCC[C@@](CC)(c3cccc(O)c3)C2)C1 [(A = CH2, n = 10)] | 9.5 ± 4.5 | 1.8 | 17 ± 6 | 66.6 ± 1.7 | 81.8 ± 1.2 | IC50 [2]: 83000 nM and 83400 nM; inhibition of AChE-induced Aβ aggregation, factor compared with propidium [2]: ~2 times |
| CC[C@@]1(c2cccc(O)c2)CCCCN(CCCCCCN2CCCC[C@@](CC)(c3cccc(O)c3)C2)C1 [(A = CH2, n = 6)] | 1220 ± 20 | 0.098 | 119 ± 20 | – | – | – |
| CC[C@@]1(c2cccc(O)c2)CCCCN(CCCN2CCCC[C@@](CC)(c3cccc(O)c3)C2)C1 [(A = CH2, n = 3)] | 42000 ± 14000 | 0.0031 | 132 ± 51 | – | – | – |
| CC[C@@]1(c2cccc(O)c2)CCCCN(CCCCN2CCCC[C@@](CC)(c3cccc(O)c3)C2)C1 [(A = CH2, n = 4), N,N′-(1′,4′-Butylene)-bis-(−)-nor-MEP Hydrochloride] | 21400 ± 7600 | 0.0049 | 104 ± 29 | – | – | – |
| CC[C@@]1(c2cccc(O)c2)CCCCN(CCCCCCCCCCCN2CCCC[C@@](CC)(c3cccc(O)c3)C2)C1 [(A = CH2, n = 11)] | 24 ± 8 | 3.1 | 74 ± 11 | – | – | – |
| CC[C@@]1(c2cccc(O)c2)CCCCN(CCCCCCCCN2CCCC[C@@](CC)(c3cccc(O)c3)C2)C1 [(A = CH2, n = 8)] | 79 ± 19 | 0.80 | 63 ± 8 | 0 | 0.15 ± 0.2 | – |
| CC[C@@]1(c2cccc(O)c2)CCCCN(CCCCCCCCCN2CCCC[C@@](CC)(c3cccc(O)c3)C2)C1 [(A = CH2, n = 9), N,N′-(1′,9′-Nonylene)-bis-(−)-nor-MEP Hydrochloride] | 3.9 | 2.6 | 10 | 74.4 ± 4.3 | 91.7 ± 3.6 | selectivity for AChE, times that of (−)-MEP (mice brain AChE [1]; relative to (−)-MEP): 7 times; fold increase in inhibiting mice brain AChE compared with (−)-MEP (mice brain AChE [1]; [5]): 10000 fold; fold increase in inhibiting mice brain AChE compared with rivastigmine (mice brain AChE [1]; relative to rivastigmine): 1400 fold; selectivity for AChE, times that of rivastigmine (mice brain AChE [1]; relative to rivastigmine): 9 times; BChE inhibition, times more potent than (−)-MEP (mice serum BChE; [5]): 1500 times; BChE inhibition, times more potent than rivastigmine (mice serum BChE; relative to rivastigmine): 150 times; IC50 [2]: 79000 nM and 79400 nM; inhibition of AChE-induced Aβ aggregation, factor compared with propidium [2]: ~2 times |
| CC[C@@]1(c2cccc(O)c2)CCCCN(CCCCCCCCCCCCN2CCCC[C@@](CC)(c3cccc(O)c3)C2)C1 [(A = CH2, n = 12)] | 42 ± 20 | 2.4 | 100 ± 55 | – | – | – |
| CC[C@@]1(c2cccc(O)c2)CCCCN(CCCCCCCN2CCCC[C@@](CC)(c3cccc(O)c3)C2)C1 [(A = CH2, n = 7)] | 270 ± 70 | 0.38 | 102 ± 19 | – | – | – |
| CC[N+](C)(CC)CCC[n+]1c(-c2ccccc2)c2cc(N)ccc2c2ccc(N)cc21 [Propidium iodine, reference compound] | – | – | – | 16.7 ± 4.4 | 79.2 ± 5.9 | – |
| CC[C@@]1(c2cccc(O)c2)CCCCN(CCCCCN2CCCC[C@@](CC)(c3cccc(O)c3)C2)C1 [(A = CH2, n = 5)] | 4000 ± 1000 | 0.048 | 192 ± 41 | – | – | – |
| CCC1(c2cccc(O)c2)CCCCN(C)C1 (single isomer, unassigned; (-)) [(−)-meptazinol] | 41000 ± 14000 | 0.37 | 15000 ± 4000 | – | – | mice brain AChE inhibition test, result in words (mice brain AChE [3]): potent AChE inhibitor; Inhibition (%) 400 μM ± SEM [2, 4]: 0% |
